{"source": "patent US10064830B2", "about": "“Treatment and prevention of cardiovascular disease and thrombosis” (The Cleveland Clinic Foundation, priority 2012, dated 2018)", "key": {"wild-type mice": {"system": "wild-type mice", "test": "Carotid artery in vivo thrombosis rates by vital microscopy, wild-type mice (Example 7, parts 6-7)", "conditions": "for in vivo thrombosis rates: diets +/- ABS or DMB for 3 weeks", "protocol": "This example repeats the study immediately above, excepts uses wild-type mice. The results are shown FIG. 14.\nCarotid artery in vivo thrombosis rates were determined using vital microscopy on the indicated groups of mice shown in FIG. 15. Mice were on the indicated diets +/− ABS or DMB for 3 weeks."}, "gut flora [1]": {"system": "gut flora", "test": "Plasma TMA and TMAO in mice after 3 weeks on diets +/- ABS or DMB (Example 7, part 1)", "assay_type": "in vivo", "conditions": "female mice, 3 weeks on diet, chow or 1.0% wt/wt choline", "protocol": "Six week old female mice were placed on the indicated diets +/− shown in FIG. 9, including Chow, CHOW+antibiotics (ABS; which was 0.5 g/L vancomycin, 1 g/L neomycin sulfate, 1 g/L metronidazole, and 1 g/L ampicillin), TMAO, CH (chow supplemented with 1.0% wt/wt choline), CH and ABS, and CH+DMB. Mice were placed on these diets at 6 weeks of age and maintained on the diets for 3 weeks. Plasma was then recovered and both TMA and TMAO were determined by stable isotope dilution LC/MS/MS."}, "[2]": {"system": "peritoneal mouse macrophages", "test": "Total cholesterol in peritoneal macrophages by stable isotope dilution LC/MS/MS (Example 5)", "assay_type": "in vivo, C57BL/6J.Apoe−/− male mice", "conditions": "chow with 1.3% choline, 1.3% DMB, both or neither", "protocol": "Experiments were conducted during development of embodiments of the present invention to determine the effect of DMB on total cholesterol level in peritoneal mouse macrophages (SEE FIG. 7). C57BL/6J.Apoe−/− male mice at the time of weaning (4 weeks) were placed on chow diet supplemented with 1.3% choline, 1.3% DMB, both, or neither. The total cholesterol of cells was quantified by stable isotope dilution LC/MS/MS. Cells number was quantified by protein content in cell lystates."}, "[3]": {"system": "C57BL/6J.Apoe−/− male mice", "test": "Aortic root lesion plaque, oil red O staining (Example 2)", "assay_type": "in vivo", "from_the_text": "C57BL/6J.Apoe−/− male mice at the time of weaning (4 weeks) were placed on chow diet supplemented with 1.3% choline, 1.3% DMB, both, or neither. Aortic root section was stained with oil red 0/hematoxin. The red oil staining area inside the aorta indicates lesion plaque (SEE FIGS. 3 and 4)."}, "Peritoneal macrophages": {"system": "Peritoneal macrophages", "test": "Cholesterol accumulation and foam cell formation in peritoneal macrophages, oil red O staining (Example 4)", "assay_type": "in vivo, C57BL/6J.Apoe−/− male mice", "conditions": "1.3% DMB added to 1.3% choline diet", "protocol": "Experiments were conducted during development of embodiments of the present invention to examine the effect of addition of DMB on cholesterol accumulation and foam cell formation. C57BL/6J.Apoe−/− male mice at the time of weaning (4 weeks) were placed on chow diet supplemented with 1.3% choline, 1.3% DMB, both, or neither. Peritoneal macrophages were collected, fixed in 4% paraformaldehyde and stained with oil red 0/hematoxin."}, "[4]": {"test": "Plasma lipoprotein profile of mice on supplemented chow (Example 3)", "assay_type": "in vivo", "conditions": "1.3% DMB added to mouse diet", "protocol": "Experiments were conducted during development of embodiments of the present invention to compare plasma levels of (1) cholesterol, (2) triglyceride, low density lipoprotein-cholesterol, and HDL cholesterol in mice fed chow, or chow supplemented with 1.3% choline, 1.3% DMB, or both (SEE FIG. 5)."}, "[5]": {"system": "endogenous foam cell formation", "test": "Macrophage cholesterol content and plasma TMAO in mice on chow supplemented with choline, TMAO or DMB (Example 1)", "assay_type": "in vivo, C57BL/6J.Apoe−/− mice", "conditions": "normal chow supplemented with choline, TMAO or DMB vs normal chow control", "protocol": "Male C57BL/6J.Apoe−/− mice (15 week old) were placed on normal chow (control) alone or supplemented in the presence of either choline (1.0%), TMAO (0.12%), or DMB (1.0%). Peritoneal macrophages were recovered from the indicated number of mice at 20 weeks of age and cellular cholesterol content was quantified by stable isotope dilution GC/MS, and normalized to DNA content.\nExperiments were conducted during development of embodiments of the present invention to examine the structural specificity of phaophatidylcholine metabolites in promoting a pro-atherogenic macrophage phenotype as monitored by endogenous foam cell formation. C57BL/6J.Apoe−/− mice at time of weaning were placed on either normal chow diet (control) or normal chow supplemented with either choline, TMAO or the choline analog DMB, where the quaternary amine nitrogen of choline is replaced with a carbon (SEE FIG. 2, right). Thus, DMB is structurally identical to choline except there is no C—N bond for potential cleavage and TMA formation by gut flora."}, "platelets": {"system": "platelets", "test": "Ex vivo platelet aggregation triggered by ADP, platelets from mice on diets (Example 7, parts 2-4)", "assay_type": "in vivo", "conditions": "platelets from mice on high choline or TMAO diet +/- antibiotics or DMB", "protocol": "(§1) In this example, mice were placed on either normal chow diet at time of weaning, or a high choline diet. After several weeks, whole blood was removed, and platelets isolated. The ability of a submaximal agonist of platelets, ADP, to trigger platelet aggregation was then determined. In parallel, plasma levels of TMAO were determined by established stable isotope dilution LC/MS/MS analyses. […] This is a clear signal of a pro-thrombotic phenotype in the mice on a high choline diet. In a similar study, the mice on the high choline were also placed on a cocktail of broad spectrum antibiotics (described above and in Wang et al., Nature 2011, April, 472(7341):57-63, incorporated by reference it its entirety for all purposes) to suppress intestinal microflora, and reduce plasma TMAO levels. […] Such drugs (e.g., DMB or antibiotics) are attractive since they should not induce excess bleeding (e.g., like commercial anti-thrombotic drugs like clopidogrel or Warfarin). That is, TMAO only accentuates platelet function, and reducing TMAO levels (like with DMB, antibiotic, or some other drug or approach, be it functional food, probiotic, or prebiotic) would decrease in vivo thrombosis, but not reduce below “normal” function, and thus not increase bleeding risk. […]"}, "gut flora [6]": {"system": "gut flora", "test": "Plasma TMAO by stable isotope dilution LC/MS/MS in the mice of the platelet aggregation study", "assay_type": "in vivo", "conditions": "high choline diet +/- antibiotics or DMB", "protocol": "as §1"}, "intestinal microflora": {"system": "intestinal microflora", "test": "Intestinal microflora-catalyzed generation of trimethylamine from D9-choline in cecum homogenate (Example 6)", "assay_type": "biochemical, Mouse", "conditions": "D9-choline substrate", "protocol": "Experiments were conducted during development of embodiments of the present invention to examine the effect of DMB on intestinal microflora-catalyzed generation of trimethylamine from choline. Mouse celum was homogenized as a source of intestinal microflora. D9-choline was used as a substrate and the generation of […] was quantificed by stable isotope dilution LC/MS/MS."}, "[7]": {"system": "Atherosclerosis Prone ApoE−/− Mice", "test": "Carotid artery in vivo thrombosis rates by vital microscopy, ApoE−/− mice (Example 7, part 5)", "conditions": "diets +/- ABS for 3 weeks", "protocol": "In this example, carotid artery in vivo thrombosis rates were determined using vital microscopy on the indicated groups of mice in FIG. 13. Mice were on the indicated diets +/− ABS for 3 weeks.\nThese studies extend to in vivo studies what was seen before with ex vivo platelet aggregation studies from mice on the various indicated diets. […] A shorter time indicates faster platelet aggregation (enhanced in vivo thrombosis)."}, "proteus mirabilis": {"system": "proteus mirabilis", "test": "TMA production from choline by proteus mirabilis (FIG. 24)", "assay_type": "cell-based"}}, "note": "“Also recorded” adds a separate entry of the source.", "data": [{"molecule": "CC(C)(C)CCO", "note": "[DMB, 3,3-dimethyl-1-butanol]", "values": [{"measurement": "in vivo thrombosis rates", "setting": "wild-type mice", "value": "block the reduction in in vivo thrombosis rates seen on a high choline diet"}, {"measurement": "TMAO levels", "setting": "wild-type mice; high choline diet +/- ABS or DMB for 3 weeks", "value": "block TMAO levels"}, {"measurement": "plasma TMA", "setting": "gut flora [1]", "value": "inhibits TMA and TMAO formation"}, {"measurement": "plasma TMAO", "setting": "gut flora [1]", "value": "inhibits TMA and TMAO formation"}, {"measurement": "macrophage cholesterol content (total cholesterol of cells)", "setting": "[2]", "value": "blocked"}, {"measurement": "reduction of aortic plaque formation", "setting": "[3]; 1.3% DMB added to normal chow diet, apoE−/− mice", "value": "~90", "unit": "%"}, {"measurement": "increases in atherosclerotic plaque induced by the high choline diet", "setting": "[3]; addition to chow with 1.3% choline", "value": "blocks the diet-induced enhanced artherosclerosis"}, {"measurement": "cholesterol accumulation and foam cell formation", "setting": "Peritoneal macrophages", "value": "reversed the high choline diet induced cholesterol accumulation and foam cell formation"}, {"measurement": "plasma HDL cholesterol", "setting": "[4]", "value": "increase in high density lipoproteins"}, {"measurement": "plasma low density lipoprotein-cholesterol", "setting": "[4]", "value": "significant reductions"}, {"measurement": "plasma total cholesterol", "setting": "[4]", "value": "significant reductions"}, {"measurement": "plasma triglyceride", "setting": "[4]", "value": "significant reductions"}, {"measurement": "macrophage cholesterol content", "setting": "[5]", "value": "no increased accumulation of cholesterol in endogenous macrophages"}, {"measurement": "plasma levels of TMAO", "setting": "[5]", "value": "no TMAO increase"}, {"measurement": "platelet aggregation (response to ADP)", "setting": "platelets", "value": "markedly reduces platelet hyperresponsiveness; also recorded: blocks platelet hyper-responsiveness (aggregation)"}, {"measurement": "plasma TMAO levels", "setting": "gut flora [6]", "value": "inhibits TMAO formation"}, {"measurement": "gut flora-mediated catabolism of choline to TMA", "setting": "intestinal microflora", "value": "markedly inhibited"}]}, {"molecule": "C[N+](C)(C)[O-]", "note": "[TMAO, trimethylamine N-oxide, reference compound]", "values": [{"measurement": "in vivo thrombosis rates", "setting": "wild-type mice", "value": "Enhances In Vivo Thrombosis Rates"}, {"measurement": "macrophage cholesterol content", "setting": "[5]", "value": "increased macrophage cholesterol content"}, {"measurement": "plasma levels of TMAO", "setting": "[5]", "value": "elevated plasma levels of TMAO"}, {"measurement": "platelet aggregation (response to ADP)", "setting": "platelets", "value": "promotes enhanced platelet aggregation"}, {"measurement": "in vivo thrombosis rates (time to cessation of blood flow in the carotid artery)", "setting": "[7]", "value": "promotes accelerated in vivo thrombosis rates"}]}, {"molecule": "C[Si](C)(C)CCO", "note": "[trimethylsilylethanol, trimethylsilyl ethanol]", "values": [{"measurement": "TMA production from choline", "setting": "proteus mirabilis", "value": "serves as an inhibitor of TMA production from choline"}]}]}
